Marks after values point to notes of the source that are not given here. Some results are limits rather than exact numbers.

Usually IC50 stands for the midpoint of a concentration-inhibition curve.

The subject of test [1] is CT26 allograft tumor (MSS subtype colorectal carcinoma). Put plainly: CT26 subcutaneous tumor model, multiple doses of ABT-301 with or without RMP1-14. Type of test: in vivo, mouse. The settings on record: for Tumor size: Day 27 after treatments, alone or + RMP1-14 200 μg, means ± SEM. As for the experimental part: Treatments were administered for indicated period (27 days) or until humane endpoints. Ten mice were used in each group. […] RMP1-14 was prepared with PBS.

Another test concerns the target T1, HDAC10 (Homo sapiens, UniProt Q969S8).
T1 sequence (Q969S8 1-669): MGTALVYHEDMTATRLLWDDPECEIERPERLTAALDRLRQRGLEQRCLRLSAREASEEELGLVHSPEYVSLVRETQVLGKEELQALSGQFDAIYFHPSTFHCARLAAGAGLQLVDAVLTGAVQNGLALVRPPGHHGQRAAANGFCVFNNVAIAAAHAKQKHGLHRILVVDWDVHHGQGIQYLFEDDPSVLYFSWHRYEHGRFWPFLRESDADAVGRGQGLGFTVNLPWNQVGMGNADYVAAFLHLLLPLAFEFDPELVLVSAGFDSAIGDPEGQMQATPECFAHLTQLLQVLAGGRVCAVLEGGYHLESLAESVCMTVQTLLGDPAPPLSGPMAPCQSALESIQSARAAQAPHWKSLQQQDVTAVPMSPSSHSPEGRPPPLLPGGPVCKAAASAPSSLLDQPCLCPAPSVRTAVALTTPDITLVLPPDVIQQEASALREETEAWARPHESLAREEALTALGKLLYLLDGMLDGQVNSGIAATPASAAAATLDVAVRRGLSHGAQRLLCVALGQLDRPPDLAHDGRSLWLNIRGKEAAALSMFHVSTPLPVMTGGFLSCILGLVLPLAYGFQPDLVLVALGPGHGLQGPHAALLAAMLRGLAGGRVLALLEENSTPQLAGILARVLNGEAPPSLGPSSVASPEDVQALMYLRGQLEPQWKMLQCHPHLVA
Put plainly: HDAC enzymatic activity assay (fluorogenic, Reaction Biology).

A further test deals with HDAC1 (Homo sapiens, UniProt Q13547). Described as above.
The target in a further test is HDAC4 (Homo sapiens, UniProt P56524). The description is as above.
The next test deals with T2, HDAC8 (Homo sapiens, UniProt Q9BY41).
T2 sequence (Q9BY41 1-377): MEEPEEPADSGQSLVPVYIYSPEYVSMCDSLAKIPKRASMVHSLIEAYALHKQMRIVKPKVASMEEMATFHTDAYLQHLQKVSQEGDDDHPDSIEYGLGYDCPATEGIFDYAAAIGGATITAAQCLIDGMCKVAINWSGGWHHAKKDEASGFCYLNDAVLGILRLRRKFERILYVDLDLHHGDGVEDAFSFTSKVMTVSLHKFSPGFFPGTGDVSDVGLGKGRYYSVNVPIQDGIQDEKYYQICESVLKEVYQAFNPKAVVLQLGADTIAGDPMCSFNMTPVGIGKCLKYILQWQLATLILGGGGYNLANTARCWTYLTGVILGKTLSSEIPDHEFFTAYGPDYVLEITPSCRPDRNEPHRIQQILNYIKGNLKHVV
The description is as above.

Another test has as its target HDAC5 (Homo sapiens, UniProt Q9UQL6). The description is as above.
Another test has as its target T3, HDAC6 (Homo sapiens, UniProt Q9UBN7).
T3 sequence (Q9UBN7 1-1215): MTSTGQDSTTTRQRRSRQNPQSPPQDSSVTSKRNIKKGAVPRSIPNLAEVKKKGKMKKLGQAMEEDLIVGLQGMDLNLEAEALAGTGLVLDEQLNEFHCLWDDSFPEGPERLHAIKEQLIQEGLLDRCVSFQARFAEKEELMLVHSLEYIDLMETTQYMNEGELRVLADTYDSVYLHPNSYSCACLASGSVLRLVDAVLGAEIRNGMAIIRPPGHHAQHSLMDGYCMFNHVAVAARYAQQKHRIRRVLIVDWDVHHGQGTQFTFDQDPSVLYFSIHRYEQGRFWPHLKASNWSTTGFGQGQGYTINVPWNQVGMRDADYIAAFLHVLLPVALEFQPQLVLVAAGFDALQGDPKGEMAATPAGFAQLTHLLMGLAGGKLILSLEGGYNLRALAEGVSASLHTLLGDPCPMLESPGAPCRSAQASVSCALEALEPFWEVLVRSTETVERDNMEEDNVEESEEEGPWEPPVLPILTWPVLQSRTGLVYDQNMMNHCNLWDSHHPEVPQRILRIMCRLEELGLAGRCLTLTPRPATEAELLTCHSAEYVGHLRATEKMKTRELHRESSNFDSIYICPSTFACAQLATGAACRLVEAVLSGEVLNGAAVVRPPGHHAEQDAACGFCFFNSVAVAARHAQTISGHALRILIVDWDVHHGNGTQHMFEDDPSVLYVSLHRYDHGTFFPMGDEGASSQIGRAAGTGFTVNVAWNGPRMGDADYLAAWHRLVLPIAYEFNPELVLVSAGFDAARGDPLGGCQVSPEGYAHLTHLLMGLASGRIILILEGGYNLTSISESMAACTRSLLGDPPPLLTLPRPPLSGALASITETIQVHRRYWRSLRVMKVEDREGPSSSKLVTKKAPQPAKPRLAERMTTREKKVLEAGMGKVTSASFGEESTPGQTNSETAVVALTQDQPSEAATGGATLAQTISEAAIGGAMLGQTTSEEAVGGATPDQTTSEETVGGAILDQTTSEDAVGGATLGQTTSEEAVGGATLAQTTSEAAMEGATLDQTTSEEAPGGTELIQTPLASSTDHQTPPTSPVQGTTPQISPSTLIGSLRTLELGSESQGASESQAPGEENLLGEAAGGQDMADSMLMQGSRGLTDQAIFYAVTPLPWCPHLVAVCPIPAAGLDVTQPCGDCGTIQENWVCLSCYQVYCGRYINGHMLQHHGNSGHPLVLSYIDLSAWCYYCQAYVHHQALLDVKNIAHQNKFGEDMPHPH
The test is described as above.

For a further test, the target named is HDAC3 (Homo sapiens, UniProt O15379). The description is as above.
Where [2] appears, read: ABT-301 25 mg/kg PO QD, alone or + RMP1-14 200 μg IP, n=10/group.
[3] abbreviates: ABT-301 100 mg/kg PO QD, alone or + RMP1-14 200 μg IP, n=10/group.

Chain of HDAC1 (Q13547 whole entry): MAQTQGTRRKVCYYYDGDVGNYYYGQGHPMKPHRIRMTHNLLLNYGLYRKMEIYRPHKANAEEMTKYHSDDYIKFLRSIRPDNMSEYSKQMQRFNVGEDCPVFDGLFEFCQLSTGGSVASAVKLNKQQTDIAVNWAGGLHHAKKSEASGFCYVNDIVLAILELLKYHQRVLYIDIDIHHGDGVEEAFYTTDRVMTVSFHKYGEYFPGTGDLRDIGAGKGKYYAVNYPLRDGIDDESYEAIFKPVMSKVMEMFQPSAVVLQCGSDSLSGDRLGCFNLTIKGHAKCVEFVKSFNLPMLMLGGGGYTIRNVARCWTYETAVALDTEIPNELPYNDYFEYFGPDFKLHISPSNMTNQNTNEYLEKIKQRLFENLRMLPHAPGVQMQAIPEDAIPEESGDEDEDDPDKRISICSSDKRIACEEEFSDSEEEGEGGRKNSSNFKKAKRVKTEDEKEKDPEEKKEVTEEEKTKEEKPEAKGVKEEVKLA
Chain of HDAC4 (P56524 whole entry): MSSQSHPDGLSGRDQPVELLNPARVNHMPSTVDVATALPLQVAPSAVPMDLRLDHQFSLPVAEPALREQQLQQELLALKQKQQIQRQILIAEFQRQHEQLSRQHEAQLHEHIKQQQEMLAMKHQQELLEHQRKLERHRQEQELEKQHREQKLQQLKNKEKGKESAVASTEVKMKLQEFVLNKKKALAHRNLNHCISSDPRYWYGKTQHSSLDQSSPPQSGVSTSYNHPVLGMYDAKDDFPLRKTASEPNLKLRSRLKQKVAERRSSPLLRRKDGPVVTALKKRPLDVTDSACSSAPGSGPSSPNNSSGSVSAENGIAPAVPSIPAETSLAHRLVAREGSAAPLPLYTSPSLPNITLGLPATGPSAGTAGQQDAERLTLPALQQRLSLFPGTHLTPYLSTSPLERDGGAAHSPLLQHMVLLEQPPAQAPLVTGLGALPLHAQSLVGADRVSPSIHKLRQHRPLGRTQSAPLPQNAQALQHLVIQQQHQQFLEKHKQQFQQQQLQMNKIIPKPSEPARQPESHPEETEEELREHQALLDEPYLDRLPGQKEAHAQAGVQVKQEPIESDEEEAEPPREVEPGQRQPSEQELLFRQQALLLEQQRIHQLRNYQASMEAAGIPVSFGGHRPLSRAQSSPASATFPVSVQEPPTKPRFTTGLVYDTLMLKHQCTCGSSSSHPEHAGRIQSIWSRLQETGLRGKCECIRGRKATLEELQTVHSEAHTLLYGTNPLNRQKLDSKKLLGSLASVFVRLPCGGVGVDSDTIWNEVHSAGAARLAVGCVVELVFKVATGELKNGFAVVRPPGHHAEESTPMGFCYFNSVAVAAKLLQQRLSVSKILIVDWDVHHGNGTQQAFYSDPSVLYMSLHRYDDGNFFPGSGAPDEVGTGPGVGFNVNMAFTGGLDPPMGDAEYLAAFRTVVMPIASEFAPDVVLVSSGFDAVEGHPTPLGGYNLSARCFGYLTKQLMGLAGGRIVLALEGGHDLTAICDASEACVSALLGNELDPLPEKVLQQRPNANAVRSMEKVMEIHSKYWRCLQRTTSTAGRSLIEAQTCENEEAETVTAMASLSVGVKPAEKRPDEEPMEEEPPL
Chain of HDAC3 (O15379 whole entry): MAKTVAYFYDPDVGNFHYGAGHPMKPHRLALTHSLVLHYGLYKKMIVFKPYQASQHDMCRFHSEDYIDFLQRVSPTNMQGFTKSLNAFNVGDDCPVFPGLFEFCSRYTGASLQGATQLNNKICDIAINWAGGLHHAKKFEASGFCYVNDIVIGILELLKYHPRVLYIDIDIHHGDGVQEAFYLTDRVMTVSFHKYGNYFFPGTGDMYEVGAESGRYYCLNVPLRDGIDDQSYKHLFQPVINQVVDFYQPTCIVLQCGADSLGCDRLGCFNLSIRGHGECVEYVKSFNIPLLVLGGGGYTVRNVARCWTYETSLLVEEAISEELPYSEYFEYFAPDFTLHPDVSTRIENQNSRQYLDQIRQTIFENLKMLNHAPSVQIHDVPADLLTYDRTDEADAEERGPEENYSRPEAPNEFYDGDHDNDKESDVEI
Chain of HDAC3 (Q9Y618 395-489 partner limits assumed): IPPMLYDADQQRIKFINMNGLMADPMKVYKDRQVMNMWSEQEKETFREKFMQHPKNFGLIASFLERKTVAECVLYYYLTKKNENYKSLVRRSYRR
Chain of HDAC5 (Q9UQL6 whole entry): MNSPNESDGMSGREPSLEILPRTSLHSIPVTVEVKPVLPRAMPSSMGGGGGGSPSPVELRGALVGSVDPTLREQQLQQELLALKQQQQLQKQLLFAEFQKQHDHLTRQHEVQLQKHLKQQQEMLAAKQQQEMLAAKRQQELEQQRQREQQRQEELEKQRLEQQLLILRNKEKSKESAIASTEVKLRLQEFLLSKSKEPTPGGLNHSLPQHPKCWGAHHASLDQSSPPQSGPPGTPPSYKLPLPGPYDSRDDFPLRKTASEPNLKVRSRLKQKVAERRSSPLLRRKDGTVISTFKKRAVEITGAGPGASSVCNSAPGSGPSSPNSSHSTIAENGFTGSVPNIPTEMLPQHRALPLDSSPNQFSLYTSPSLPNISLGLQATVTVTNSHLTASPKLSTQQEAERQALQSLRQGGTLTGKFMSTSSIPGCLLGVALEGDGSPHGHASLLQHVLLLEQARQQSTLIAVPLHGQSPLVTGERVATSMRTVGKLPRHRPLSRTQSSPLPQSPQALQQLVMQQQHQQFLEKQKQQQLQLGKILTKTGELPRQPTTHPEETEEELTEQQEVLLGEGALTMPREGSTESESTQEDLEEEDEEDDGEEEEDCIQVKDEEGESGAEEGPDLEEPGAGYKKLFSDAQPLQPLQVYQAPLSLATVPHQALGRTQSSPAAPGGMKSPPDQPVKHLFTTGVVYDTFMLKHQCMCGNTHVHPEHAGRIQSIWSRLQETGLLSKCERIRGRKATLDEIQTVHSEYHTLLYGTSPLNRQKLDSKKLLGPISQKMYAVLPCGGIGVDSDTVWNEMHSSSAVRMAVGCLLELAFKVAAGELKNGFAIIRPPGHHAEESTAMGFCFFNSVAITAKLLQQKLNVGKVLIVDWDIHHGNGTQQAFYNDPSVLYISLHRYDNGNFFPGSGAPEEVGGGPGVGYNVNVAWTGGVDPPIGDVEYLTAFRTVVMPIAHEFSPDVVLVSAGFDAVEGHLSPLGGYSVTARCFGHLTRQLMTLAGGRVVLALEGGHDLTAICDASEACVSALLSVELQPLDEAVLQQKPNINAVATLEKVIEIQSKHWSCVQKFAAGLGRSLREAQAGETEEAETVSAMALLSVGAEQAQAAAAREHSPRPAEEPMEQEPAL

For the compound `O=C(/C=C/c1ccc2c(c1)CCN2S(=O)(=O)c1ccccc1)NO` [ABT-301, (E)-N-hydroxy-3-(1-(phenylsulfonyl)-indolin-5-yl)-acrylamide], the figures for the “number of mice exhibiting partial response (PR)” value in test [1] (setting [2]) and in test [1] (setting [3]) were 1 and 2, respectively. The “number of mice exhibiting progressive disease (PD)” value in test [1] (setting [2]) was 8; in test [1] (setting [3]), 7. Also, the “number of mice exhibiting complete response (CR)” value in test [1] (setting [3]) was determined as 2. The Tumor size is 806.83 ± 212.06* mm^3 in test [1] (ABT-301 25 mg/kg), 580.33 ± 206.53** mm^3 in test [1] (ABT-301 50 mg/kg) and 234.59 ± 52.38** mm^3 in test [1] (ABT-301 100 mg/kg). Also, the IC50 against HDAC10 was 0.0597 µM; on HDAC1, 0.0302 µM; against HDAC4, over 3 µM; on HDAC8, 0.956 µM; on HDAC5 it was over 3 µM; against HDAC6, 0.0532 µM. 0.00661 µM corresponded to half-maximal inhibition against HDAC3 (IC50).

The record behind these values is patent US20240277663A1, “PHARMACEUTICAL KITS AND USES THEREOF FOR TREATING COLORECTAL CANCER” (priority 2023, published 2024).
